From ChEMBL document CHEMBL2010754, “Unusual isomeric corniculatolides from mangrove, Aegiceras corniculatum” (J Nat Prod, 2012)
Activity calls are given as the source filed them.

Experiments:
Type in all cases: functional, organism-based
Escherichia coli = assay: Antibacterial activity against Escherichia coli by agar diffusion method
Aspergillus flavus = assay: Antifungal activity against Aspergillus flavus by agar diffusion method
Klebsiella pneumoniae = assay: Antibacterial activity against Klebsiella pneumoniae by agar diffusion method
Aspergillus terreus = assay: Antifungal activity against Aspergillus terreus by agar diffusion method
Bacillus subtilis = assay: Antibacterial activity against Bacillus subtilis by agar diffusion method
Staphylococcus aureus = assay: Antibacterial activity against Staphylococcus aureus by agar diffusion method
Aspergillus niger = assay: Antifungal activity against Aspergillus niger by agar diffusion method
Micrococcus luteus = assay: Antibacterial activity against Micrococcus luteus by agar diffusion method

Measured: Activity

COc1ccc2cc1Oc1ccc(cc1)CCC(=O)OCCC2
inactive: all assays above

COc1c(O)cc2cc1Oc1ccc(cc1)CCCOC(=O)CC2
inactive: all assays above

O=C1CCc2ccc(O)c(c2)Oc2ccc(cc2)CCCO1
inactive: all assays above

COc1ccc2cc1Oc1ccc(cc1)CCCOC(=O)CC2
inactive: all assays above

O=C1CCc2ccc(cc2)Oc2cc(ccc2O)CCCO1
inactive: all assays above
